Assay results reported in patent US8772243B2, “Methods for predicting the response to anti-cancer treatment with an agonist of TLR7 or an agonist of TLR8” (Inserm (Institut National de la Sante et de la Recherche …, priority 2008, dated 2014).

What was measured:
[1] = test system: Bcl-2 expression in SCC SK-MES cells; assay: Bcl-2 expression, SK-MES; type: cell-based, human; conditions: data not shown
Procedure: Total RNA was extracted from A549 or SK-MES cells stimulated with loxoribine, Poly U, or Gardiquimod for 6 h or from purified human lung cancer cells using the RNeasy isolation-kit RNA (Qiagen, Courtaboeuf, France). The integrity and the quantity of the RNA were evaluated with a bioanalyzer-2100 (Agilent Technologies). All samples were assessed for gene expression analysis using the Taq Man Low-Density Array angiogenesis and immune panel (Applied Biosystem). The RT-PCR experiments were carried-out according to the manufacturer's instructions (Applied-Biosystems). Quantitative real-time TaqMan-PCR was performed using Low-Density-Arrays and the 7900 robotic real-time PCR-system (Applied-Biosystems). The 18S primers and probes were used as internal controls. Data were analyzed using the SDS Software v2.2 (Applied-Biosystems). The ΔCT values were calculated for each gene by subtraction of the CT value of the 18S housekeeping gene from the CT of the gene of interest. The ΔΔCT values were obtained by subtraction of the ΔCT values for unstimulated cells from the […]. The fold increase (arbitrary unit) was obtained by 2^−ΔΔCT.

A549 cells = assay: A549 xenograft in NOD/SCID mice; type: in vivo
Procedure: Mice were anesthetized by intra-peritoneal injection of a solution containing 3.2 mg of ketamine (Virbac) and 0.16 mg of xylasine (Rompum 2%, Bayer Healthcare) in 80 μl of PBS (Gibco). Five days prior to experimentation, A549 cells were pre-stimulated with 100 μM Loxoribine (Invivogen) or left unstimulated. For each condition 5×10^6 cells were diluted in 250 μl PBS and injected subcutaneously to 5 mice per group and were re-stimulated either with 50 μl PBS or with 100 nmol of Loxoribine diluted in 50 μl PBS. Stimulating injections into the tumor site were carried out on the day the cells were injected and then on days 3, 6 and 9. The mice then received either 120 μA PBS, or a chemotherapy of cisplatine (2 mg/kg/injection diluted in 120 μl PBS) on days 18, 20 and 22, both intra-peritoneal. The volume of the tumor was determined by measuring the length (Lg), the width (Wi) of the tumor and by calculating (Lg*(Wi*Wi)/2.

A549 and SK-MES cells = assay: Chemoresistance assay (Trypan blue and Alamar blue); type: cell-based, human; conditions: Alamar blue reduction
Procedure: FIG. 5 TLR7 and 8 induce chemoresistance of lung tumor cells. A549 (A-C) or SK-MES cells (D-F) were cultured with or without loxoribine or Poly U for 48 h, and then left untreated or were treated with cycloheximide, cisplatine, carboplatine, doxorubicine, or Navelbine. After 36 h, the percentage of dead cells was determined by Trypan blue exclusion (A, D) and cell viability was analyzed by the reduction of Alamar blue (B, C, E and F). Data represent mean values±SD from 3 independent experiments (*p<0.05; **p<0.01, ***p<0.001, Student test).
A549 and SK-MES cells were seeded in 96-well plates (1000 cells per well) and left unstimulated or were stimulated with loxoribine, Poly U, or Gardiquimod for 48 h. Cisplatine, carboplatine, doxorubicine, Navelbine, or cycloheximide was then added for an additional 36 h. The optical density in each well was determined 24 h after the addition of Alamar blue at 540 nm and 570 nm. Alternatively, viable and dead cells were counted using Trypan blue.

Compound | increase in Bcl-2 expression [1] | tumor volume by week 14 (A549 cells; A549 cells pre-stimulated 100 μM, 100 nmol into tumor site days 0, 3, 6, 9, control group 4 cm^3) | metastases at autopsy (A549 cells; Loxoribine mice versus control mice) | time of 50% mortality (A549 cells; Loxoribine mice, NS mice towards week 17) | tumor volume seven weeks after injection of tumor cells (A549 cells; PBS-treated Loxoribine pre-stimulated group, PBS-treated NS group 1.9 cm^3) | tumor volume ratio, Loxoribine pre-stimulated versus NS group (A549 cells; PBS-treated, seven weeks after injection) | cell viability after chemotherapy when stimulated prior to induction of apoptosis (A549 and SK-MES cells)
C=CCn1c(=O)n([C@@H]2O[C@H](CO)[C@@H](O)[C@H]2O)c2nc(N)[nH]c(=O)c21 [loxoribine, 7-allyl-7,8-dihydro-8-oxo-guanosine] | 100 fold | 8 cm^3 | more ganglionic and pulmonary metastases than control mice | ~15 week | 5.3 cm^3 | 2.5 times | significantly higher viability
Poly U | 100 fold |  |  |  |  |  | significantly higher viability
